Values quoted from earlier work in patent US8455667B2, “Duloxetine compositions in the form of a powder for suspension in a liquid” (priority 2005, dated 2013).

Experiments:
[1] = system: dopaminergic receptors; conditions: in vitro
[2] = system: adrenergic receptors; conditions: in vitro
[3] = system: cholinergic receptors; conditions: in vitro
[4] = system: histaminergic receptors; conditions: in vitro
[5] = system: monoamine oxidase (MAO)
[6] = in vivo

## CNCC[C@H](Oc1cccc2ccccc12)c1cccs1 [Duloxetine, (S)-N-methyl-3-(1-naphthyloxy)-3-(2-thienyl) propan-1-amine]
[1]
  affinity for dopaminergic receptors: no significant affinity
[2]
  affinity for adrenergic receptors: no significant affinity
[3]
  affinity for cholinergic receptors: no significant affinity
[4]
  affinity for histaminergic receptors: no significant affinity
[5]
  inhibition of monoamine oxidase (MAO): does not inhibit
pH 1.0, within one hour
  dosage hydrolyzed to 1-naphthol: 50%
pH 2.0, in one hour
  dosage degraded to 1-Naphthol: 10%
pH 4.0
  time for 10% degradation: up to 63 hours
[6]
  mean plasma elimination half-life: 12.1 h
